Where “and” joins values, the source holds several entries; their conditions need not be identical. Identical values can stand only once. Counter-ions that a name gives are not always drawn. Peptide text beside a SMILES is read from it. * marks the point of attachment. Cbz = O=C(OCc1ccccc1)*

One may read the IC50 as the concentration that gives 50% inhibition. Usually inhibition stands for the drop in the measured response relative to a control, in per cent.

Data set [1] concerns SARS-CoV-2. Kind of data set: microbe, parasite or virus in culture. The data set is classed as functional, organism-based, Chlorocebus sabaeus, Vero C1008.
Data set [2] in a line: in vitro. The following applies: chlorocebus sabaeus.
The test system of the next data set is Vero C1008. The following applies: chlorocebus sabaeus, vero c1008, 48 h.
The test system of data set [3] is SARS-CoV-2. The following applies: Chlorocebus sabaeus; Vero C1008; 10 uM.
Data set [4] can be described thus: in vitro. The following applies: chlorocebus sabaeus. The source holds these as a separate data set.
Where [5] appears, read: VERO-E6 cells (Vero C1008), uninfected, CC50.
[6] abbreviates: Severe acute respiratory syndrome coronavirus 2, Vero C1008, 48 h.
[7] abbreviates: VERO-E6 cells, Selectivity index.

In turn, `COc1cc2c(NC3CCN(C4CCCCC4)CC3)nc(N3CCCN(C(C)C)CC3)nc2cc1OCCCN1CCCCC1` had an IC50 in the data set on SARS-CoV-2 [1] (vero c1008) above 33 µM. The molecule further displayed a CC50 at 48 h in the data set “in vitro [2]” (setting [5]) above 33 µM. The same molecule returned a CC50 in the data set with Vero C1008 of 18.6 µM.

`CC(=O)[C@]1(O)Cc2c(O)c3c(c(O)c2[C@@H](O[C@H]2C[C@H](N)[C@H](O)[C@H](C)O2)C1)C(=O)c1ccccc1C3=O` [IDARUBICIN]: in the data set with Vero C1008, the CC50 came to 0.2 µM.

In the case of `CNC(=O)c1cc(Oc2ccc(NC(=O)Nc3ccc(Cl)c(C(F)(F)F)c3)c(F)c2)ccn1` [REGORAFENIB], the IC50 in the data set with SARS-CoV-2 [1] (setting [6]) was above 33 µM; with SARS-CoV-2 [1] (vero c1008) it was 24.9 µM. Also, the CC50 in the data set on Vero C1008 is > 33 µM and 8.31 µM.

In the case of ACRIFLAVINE HYDROCHLORIDE, in the data set on SARS-CoV-2 [3], the inhibition was -0.35%.

In the data set with SARS-CoV-2 [1] (vero c1008), `CC(C)(C)c1cc(C=C(C#N)C#N)cc(C(C)(C)C)c1O` [TYRPHOSTIN A9] showed an IC50 above 33 µM. For the same molecule, the CC50 with Vero C1008 is 7.99 µM and 1.27 µM.

For ESCIN, the inhibition with SARS-CoV-2 [3] was -0.23%.

Take COLISTIMETHATE SODIUM: the inhibition in the data set with SARS-CoV-2 [3] was -0.25%.

Vitamin B12: in the data set on SARS-CoV-2 [3], the inhibition was 0.12%.

Take AUROTHIOGLUCOSE: the inhibition in the data set with SARS-CoV-2 [3] is -0.05%.

As for `CC(=O)OC[C@]12CCC(C)=C[C@H]1O[C@@H]1[C@H](O)[C@@H](OC(C)=O)[C@@]2(C)[C@@]12CO2`, in the data set with SARS-CoV-2 [3], the inhibition was -0.2%.

In “in vitro [2]” (setting [5]), `O=C(c1c2ccccc2cc2ccccc12)N1CCC(N2CCC[C@@H](C(=O)N3CCOCC3)C2)CC1` showed a CC50 at 48 h of 10.2 µM. The molecule further returned a CC50 in the data set with Vero C1008 of 10.9 µM.

In the case of CETRIMONIUM BROMIDE, in the data set with SARS-CoV-2 [3], the inhibition turned out to be 0.3%.

With `COc1ccc(-c2cc3c(C)nc(N)nc3n([C@H]3CC[C@H](OCCO)CC3)c2=O)cn1` [PF-04691502], the IC50 stood at 0.55 µM in the data set on SARS-CoV-2 [1] (setting [6]) and 0.8 µM in the data set with SARS-CoV-2 [1] (vero c1008). For the same molecule, the CC50 in the data set on Vero C1008 was 0.32 µM and 0.09 µM.

Regarding PHENYLMERCURIC ACETATE, the inhibition in the data set with SARS-CoV-2 [3] was -0.23%.

For the molecule NYSTATIN, the inhibition in the data set with SARS-CoV-2 [3] is 0.08%.

As for hemin, the inhibition in the data set with SARS-CoV-2 [3] was -0.12%.

`Nc1ncnc2c1c(-c1cnc3[nH]ccc3c1)nn2C1CCCC1`: the selectivity ratio in the data set “in vitro [4]” (setting [7]) came out at 0.76. In the data set with SARS-CoV-2 [1] (setting [6]), the IC50 was determined as 11.8 µM. Besides, the CC50 at 48 h in the data set “in vitro [2]” (setting [5]) was determined as 8.95 µM.

In the case of VITAMIN E, the inhibition in the data set on SARS-CoV-2 [3] is 0.25% (2×) and -0.04% (2×).

Turning to CYANOCOBALAMIN, in the data set with SARS-CoV-2 [3], the inhibition worked out at 0.04%.

In the data set on Vero C1008, `CC(=O)[C@]1(O)Cc2c(O)c3c(c(O)c2[C@@H](O[C@H]2C[C@H](N)[C@H](O)[C@H](C)O2)C1)C(=O)c1ccccc1C3=O` [IDARUBICIN HYDROCHLORIDE] gave a CC50 of 0.41 µM.

For the molecule `Cc1nc2cnc3ccc(C#Cc4cccnc4)cc3c2n1-c1ccc(C(C)(C)C#N)cc1`, the selectivity ratio in “in vitro [4]” (setting [7]) was 1. Half-maximal inhibition in the data set on SARS-CoV-2 [1] (setting [6]) (IC50) required 0.11 µM. Further, the CC50 at 48 h in the data set “in vitro [2]” (setting [5]) turned out to be 0.11 µM.

Consider `CC(C)[C@H]1c2ccc(F)cc2CC[C@@]1(CCN(C)CCCc1nc2ccccc2[nH]1)OC(=O)C1CC1`, for which, in the data set “in vitro [4]” (setting [7]), the selectivity ratio was 0.99. For the same molecule, the IC50 in the data set with SARS-CoV-2 [1] (setting [6]) was determined as 8.21 µM. Also, the CC50 at 48 h in the data set “in vitro [2]” (setting [5]) is 8.13 µM.

On to `CCS(=O)(=O)c1ccc(CC(=O)Nc2cc(Cl)c(-c3ccccc3OC(F)(F)F)c(Cl)c2)cc1`, for which the selectivity ratio in the data set “in vitro [4]” (setting [7]) turned out to be 0.58. This molecule also came in with a half-inhibitory concentration (IC50) with SARS-CoV-2 [1] (setting [6]) of 21 µM. Also, the CC50 at 48 h in “in vitro [2]” (setting [5]) stood at 12.1 µM.

`CC[C@H](CC#N)OC(=O)N[C@@H](C)c1cccc(NC(=O)Nc2ccc(-c3cnco3)c(OC)c2)c1` [AVN-944]: the selectivity ratio in “in vitro [4]” (setting [7]) was found to be 0.67. The same molecule displayed an IC50 with SARS-CoV-2 [1] (setting [6]) of 1.14 µM. The CC50 at 48 h in “in vitro [2]” (setting [5]) turned out to be 0.76 µM.

As to `Cc1c(CN2CCN(C(=O)[C@H](C)O)CC2)sc2c(N3CCOCC3)nc(-c3cnc(N)nc3)nc12` [APITOLISIB], the selectivity ratio in “in vitro [4]” (setting [7]) stood at 0.22. The IC50 in the data set on SARS-CoV-2 [1] (setting [6]) came to 2.31 µM. Further, the CC50 at 48 h in “in vitro [2]” (setting [5]) was 0.5 µM.

As for `Cc1cc(Nc2cc(N3CCN(C)CC3)nc(Sc3ccc(NC(=O)C4CC4)cc3)n2)n[nH]1`, the inhibition with SARS-CoV-2 [3] is 0.28%.

`Nc1nc2nn[nH]c2c(=O)[nH]1` [8-AZAGUANINE]: the IC50 with SARS-CoV-2 [1] (vero c1008) was 3.72 µM and 10.3 µM. Further, in the data set “in vitro [2]” (setting [5]), the CC50 at 48 h worked out at 10.4 µM. Further, in the data set with Vero C1008, the CC50 is 11.2 µM.

Turning to `CC(C)n1nc(-c2cc3cc(O)ccc3[nH]2)c2c(N)ncnc21`, the selectivity ratio in the data set “in vitro [4]” (vero c1008, Selectivity index) worked out at 0.05. The molecule further had an IC50 in the data set with SARS-CoV-2 [1] (setting [6]) above 33 µM. In “in vitro [2]” (vero c1008, CC50), this molecule showed a CC50 at 48 h of 1.63 µM.

Consider `O=c1cc(N2CCOCC2)oc2c(-c3cccc4c3sc3ccccc34)cccc12`, for which the selectivity ratio in the data set “in vitro [4]” (setting [7]) stood at 0.15. In the data set on SARS-CoV-2 [1] (setting [6]), this molecule gave an IC50 of 3.79 µM. The molecule also gave a CC50 at 48 h in the data set “in vitro [2]” (setting [5]) of 0.58 µM.

Molecule `CNCc1ccc(-c2cc(-c3nc(-c4ccc(S(=O)(=O)C(C)C)cc4)cnc3N)on2)cc1` [BERZOSERTIB] came in with an IC50 in the data set on SARS-CoV-2 [1] (vero c1008) of 3.54 µM. The CC50 with Vero C1008 is 10 µM and > 33 µM.

As for `Clc1ccccc1CNC[C@H]1CC[C@H](CNCc2ccccc2Cl)CC1`, the selectivity ratio in the data set “in vitro [4]” (setting [7]) was determined as 1.36. The same molecule displayed an IC50 in the data set with SARS-CoV-2 [1] (setting [6]) of 22.7 µM. The molecule also displayed a CC50 at 48 h in “in vitro [2]” (setting [5]) of 30.9 µM.

On to `CC(C)C[C@H](NC(=O)[C@@H](NC(=O)c1cccc(-c2ccccc2)n1)[C@@H](C)O)B(O)O` [DELANZOMIB], for which the selectivity ratio in “in vitro [4]” (setting [7]) is 0.35. Further, the IC50 in the data set with SARS-CoV-2 [1] (setting [6]) was 1.3 µM. Moreover, the CC50 at 48 h in “in vitro [2]” (setting [5]) came to 0.46 µM.

Turning to `Cc1[nH]c(/C=C2\C(=O)Nc3ccc(S(=O)(=O)N(C)c4cccc(Cl)c4)cc32)c(C)c1C(=O)N1CCN(C)CC1`, in “in vitro [4]” (setting [7]), the selectivity ratio was 0.96. This molecule registered a half-inhibitory concentration (IC50) with SARS-CoV-2 [1] (setting [6]) of 10.9 µM. In the data set “in vitro [2]” (setting [5]), this molecule gave a CC50 at 48 h of 10.4 µM.

For the molecule VANADATE ION, the inhibition in the data set on SARS-CoV-2 [3] is 0.02%.

As for `Nc1nccc2c1ncn2[C@@H]1C=C(CO)[C@@H](O)[C@H]1O`, the selectivity ratio in “in vitro [4]” (setting [7]) amounted to 0.14. This molecule registered an IC50 in the data set with SARS-CoV-2 [1] (setting [6]) of 2.07 µM. This molecule also displayed a CC50 at 48 h in the data set “in vitro [2]” (setting [5]) of 0.3 µM.

Take Sodium orthovanadate: the inhibition with SARS-CoV-2 [3] was found to be 0.13%.

On to Auranofin, for which, in the data set with SARS-CoV-2 [3], the inhibition is -0.39%.

For the molecule `Cc1ccc(Nc2ncc3c(n2)N(C)C(=O)N(c2cc(NC(=O)c4cccc(C(F)(F)F)c4)ccc2C)C3)cn1`, the selectivity ratio in “in vitro [4]” (setting [7]) is 0.12. In the data set on SARS-CoV-2 [1] (setting [6]), this molecule returned an IC50 of 5.21 µM. In the data set “in vitro [2]” (setting [5]), this molecule displayed a CC50 at 48 h of 0.61 µM.

For GADOTERIDOL, the inhibition in the data set with SARS-CoV-2 [3] is -0.08%.

`COc1ccc(CNc2nc(N(CCO)CCO)nc3c2ncn3C(C)C)cc1`: the selectivity ratio in “in vitro [4]” (setting [7]) was found to be 0.82. In the data set on SARS-CoV-2 [1] (setting [6]), this molecule showed an IC50 of 7.95 µM. Moreover, the CC50 at 48 h in “in vitro [2]” (setting [5]) came to 6.49 µM.

Regarding MERBROMIN, the inhibition in the data set with SARS-CoV-2 [3] came to 0%.

The molecule `CC(C)C[C@@H](C=O)NC(=O)[C@H](CC(C)C)NC(=O)[C@H](CC(C)C)NC(=O)OCc1ccccc1` [MG-132] (Cbz-Leu-Leu-Leu-aldehyde) had an IC50 in the data set on SARS-CoV-2 [1] (vero c1008) of 0.99 µM. The same molecule yielded a CC50 at 48 h in the data set “in vitro [2]” (setting [5]) of 2.9 µM. In the data set on Vero C1008, this molecule yielded a CC50 of 3.04 µM.

Take `CN(C)c1cccc(-c2c3c(=O)n(-c4ccccc4Cl)[nH]c3cc(=O)n2C)c1` [SETANAXIB]: in “in vitro [4]” (vero c1008, Selectivity index), the selectivity ratio amounted to 1.26. Moreover, the half-maximal inhibitory concentration (IC50) with SARS-CoV-2 [1] (setting [6]) is 11.8 µM. The molecule also had a CC50 at 48 h in “in vitro [2]” (vero c1008, CC50) of 14.8 µM.

For the molecule `Cc1cc2c(F)c(Oc3ncnn4cc(OC[C@@H](C)OC(=O)[C@H](C)N)c(C)c34)ccc2[nH]1` [BRIVANIB ALANINATE], the selectivity ratio in the data set “in vitro [4]” (setting [7]) is 0.4. Besides, in the data set on SARS-CoV-2 [1] (setting [6]), 6.5 µM corresponded to half-maximal inhibition (IC50). Further, the CC50 at 48 h in “in vitro [2]” (setting [5]) was determined as 2.58 µM.

On to TOCOFERSOLAN, for which, in the data set with SARS-CoV-2 [3], the inhibition was found to be 41.8%.
